Paper PMC7408072 (Pharmaceutics, 2020)
Peptide text beside a SMILES is read from it. * marks the point of attachment. 5TAMRA = CN(C)c1ccc2c(c1)Oc1cc(N(C)C)ccc1C21OC(=O)c2cc(C(=O)*)ccc21

How the values were obtained:
[1] = Peptide stability in serum-containing cell media; type: in vitro ADME, bovine; details: differentiation medium with 10% FBS, 37 °C, 100 µM peptide, urea/TCA-acetone protein precipitation, UPLC C18, UV 214 and 498 nm, mean ± SD, N = 2
Experimental: Samples (20 µL) were withdrawn at 0, 15, 30, 60, 120, 180, and 240 min. At room temperature, 50 µL of 6 M urea was added for 10 min to denature plasma proteins. To precipitate plasma proteins, 50 µL of 20% (w/v) trichloroacetic acid in acetone was added and the sample incubated at −20 °C for 10 min. The samples were spun down at 10,000× g for 5 min at 5 °C. The acetone phase containing the TAMRA-peptides was filtered (pore size 0.22 µm) prior to analysis by UPLC using a Waters Acquity system with a C18 BEH reverse phase column (BEH C18 column, 2.1 mm × 50 mm × 1.7 µm). Mobile phase A consisted of 95% ultrapure water and 5% acetonitrile (ACN) with 0.1% trifluoroacetic acid (TFA) and mobile phase B of 95% ACN and 5% ultrapure water with 0.1% TFA. A linear gradient was used (min/%B): 0/5%, 12/45%, 12.1/100%, 13/100%, 13.1/5%, 15/5%, with a flow rate of 0.45 mL/min over 15 min with UV detection at 214 and 498 nm. Lower limits of detection are 6.2 µM for TAMRA-NR2B9c, 0.8 µM for TAMRA-Tat, 1.6 µM for TAMRA-Tat-NR2B9c, and 1.6 µM for TAMRA-Tat-N-dimer.

[2] = system: bovine BCEC monolayers co-cultured with rat astrocytes; experiment: Transport and cell uptake of 3-5 kDa FITC-dextran in the presence of peptide (bovine model); type: cell-based; details: 1 mg/mL FITC-dextran with 100 µM peptide, luminal, 3 h, abluminal FITC fluorescence; N = 3, n = 3
Experimental: Transport across bovine or mouse BCEC monolayers co-cultured with rat astrocytes was carried out over 3 h at 37 °C with horizontal shaking (90 rpm). TEER was measured at room temperature using an Endohm 12 cup (World Precision Instruments, Sarasota, FL, USA) connected to a Millicell-ERS device (Millipore, Bedford, MA, USA). TEER was measured before application of the peptides and after each experiment. The bovine model had initial TEER values ranging from 771 to 1332 Ω·cm^2, whereas the mouse model had initial TEER values ranging from 136 to 217 Ω·cm^2.
FITC fluorescence was measured using a NovoStar fluorescence plate reader (BMG Labtech, Offenburg, Germany) with excitation/emission set to 494/518 nm. […] The filters were washed with PBS thrice for 5 min, mounted on glass slides under coverslips using Immu-Mount™ mounting media (Thermo Fischer Scientific, Bedford, MA, USA), and imaged using single wavelength excitation on a Leica SP2 laser-scanning confocal microscope (Leica Microsystems, Wetzlar, Germany).

Compound | % of the initial concentration remaining after 4 h of incubation in serum-supplemented cell media [1] | transendothelial permeation of 3-5 kDa FITC-dextran applied with peptide, compared to FITC-dextran alone [2]
CC[C@H](C)[C@H](NC(=O)[C@H](CO)NC(=O)[C@H](CO)NC(=O)[C@H](CC(C)C)NC(=O)[C@H](CCCCN)NC(=O)c1ccc2c(c1)C(=O)OC21c2ccc(N(C)C)cc2Oc2cc(N(C)C)ccc21)C(=O)N[C@@H](CCC(=O)O)C(=O)N[C@@H](CO)C(=O)N[C@@H](CC(=O)O)C(=O)N[C@H](C(=O)O)C(C)C [TAMRA-NR2B9c] (5TAMRA-KLSSIESDV-OH) | 92.0% ± 12.6% | –
CC[C@H](C)[C@H](NC(=O)CCOCCOCCN(CCOCCOCCC(=O)N[C@H](C(=O)N[C@@H](CCC(=O)O)C(=O)N[C@H](C(=O)N[C@@H](CC(=O)O)C(=O)N[C@H](C(=O)O)C(C)C)[C@@H](C)O)[C@@H](C)CC)C(=O)[C@H](CCCNC(=N)N)NC(=O)[C@H](CCCNC(=N)N)NC(=O)[C@H](CCCNC(=N)N)NC(=O)[C@H](CCC(N)=O)NC(=O)[C@H](CCCNC(=N)N)NC(=O)[C@H](CCCNC(=N)N)NC(=O)[C@H](CCCCN)NC(=O)[C@H](CCCCN)NC(=O)[C@H](CCCNC(=N)N)NC(=O)CNC(=O)[C@H](Cc1ccc(O)cc1)NC(=O)c1ccc2c(c1)C(=O)OC21c2ccc(N(C)C)cc2Oc2cc(N(C)C)ccc21)C(=O)N[C@@H](CCC(=O)O)C(=O)N[C@H](C(=O)N[C@@H](CC(=O)O)C(=O)N[C@H](C(=O)O)C(C)C)[C@@H](C)O [TAMRA-Tat-N-dimer] | 88.1% ± 1.8% | did not increase
CC[C@H](C)[C@H](NC(=O)[C@H](CO)NC(=O)[C@H](CO)NC(=O)[C@H](CC(C)C)NC(=O)[C@H](CCCCN)NC(=O)[C@H](CCCNC(=N)N)NC(=O)[C@H](CCCNC(=N)N)NC(=O)[C@H](CCCNC(=N)N)NC(=O)[C@H](CCC(N)=O)NC(=O)[C@H](CCCNC(=N)N)NC(=O)[C@H](CCCNC(=N)N)NC(=O)[C@H](CCCCN)NC(=O)[C@H](CCCCN)NC(=O)[C@H](CCCNC(=N)N)NC(=O)CNC(=O)[C@H](Cc1ccc(O)cc1)NC(=O)c1ccc2c(c1)C(=O)OC21c2ccc(N(C)C)cc2Oc2cc(N(C)C)ccc21)C(=O)N[C@@H](CCC(=O)O)C(=O)N[C@@H](CO)C(=O)N[C@@H](CC(=O)O)C(=O)N[C@H](C(=O)O)C(C)C [TAMRA-Tat-NR2B9c] (5TAMRA-YGRKKRRQRRRKLSSIESDV-OH) | 34.3% ± 1.7% | –
CN(C)c1ccc2c(c1)Oc1cc(N(C)C)ccc1C21OC(=O)c2cc(C(=O)N[C@@H](Cc3ccc(O)cc3)C(=O)NCC(=O)N[C@@H](CCCNC(=N)N)C(=O)N[C@@H](CCCCN)C(=O)N[C@@H](CCCCN)C(=O)N[C@@H](CCCNC(=N)N)C(=O)N[C@@H](CCCNC(=N)N)C(=O)N[C@@H](CCC(N)=O)C(=O)N[C@@H](CCCNC(=N)N)C(=O)N[C@@H](CCCNC(=N)N)C(=O)N[C@@H](CCCNC(=N)N)C(=O)O)ccc21 [TAMRA-Tat] | 56.0% ± 8.9% | –
